Test results as given in patent publication US12677830B2, “3-alkoxybenzamide derivative, and pest control agent” (Kumiai Chemical Industry Co., Ltd., priority 2020, dated 2026).

Legend:
Assay type in all cases: in vivo
Plutella xylostella = test: Test for insecticidal activity against Plutella xylostella (cabbage leaf dip); conditions: foliar, 144 h, 500 ppm active ingredient (wettable powder in water), cabbage leaves immersed, ten second instar larvae, 25° C., 6 days after the treatment, read-out: mortality rate
Description: [Test Example 1] Test for Insecticidal Activity Against Plutella xylostella
(§1) The wettable powder prepared in accordance with Formulation Example 2 was diluted with water to a concentration of 500 ppm as an active ingredient. Cabbage leaves were immersed in the chemical solution, air-dried, and then placed in a plastic cup. Ten second instar larvae of Plutella xylostella were released into the cup, and the cup was capped. Thereafter, the cup was placed in a room at constant temperature of 25° C. The number of dead insects was examined at 6 days after the treatment, and the mortality rate was calculated by the calculation formula of Equation 1. The number of replicate is one in each test.
(§2) The compound numbers of the compounds showing a mortality rate of 90% or more in this test are listed below.

Helicoverpa armigera = test: Test for insecticidal activity against Helicoverpa armigera (cabbage leaf dip); conditions: foliar, 144 h, 500 ppm active ingredient (wettable powder in water), cabbage leaves immersed, five hatching larvae, 25° C., 6 days after the treatment, read-out: mortality rate
Description: [Test Example 2] Test for Insecticidal Activity Against Helicoverpa armigera
as §1, with “Five hatching” for “Ten second instar”, “Helicoverpa armigera” for “Plutella xylostella”, “two” for “one”
as §2

Nilaparvata lugens = test: Test for insecticidal activity against Nilaparvata lugens (rice sprout dip); conditions: 144 h, 500 ppm active ingredient (wettable powder in water), rice sprouts immersed, ten second instar larvae, 25° C., 6 days after the treatment, read-out: mortality rate
Description: [Test Example 3] Test for Insecticidal Activity Against Nilaparvata lugens
The wettable powder prepared in accordance with Formulation Example 2 was diluted with water to a concentration of 500 ppm as an active ingredient. The rice sprouts were immersed in the chemical solution, and placed in a plastic cup. Ten second instar larvae of Nilaparvata lugens were released into the plastic cup, and the cup was capped. Thereafter, the cup was placed in a room at constant temperature of 25° C. The number of dead insects was examined at 6 days after the treatment, and the mortality rate was calculated by the calculation formula of Equation 1. The number of replicate is one in each test.
as §2

Tetranychus urticae = test: Test for control effect against Tetranychus urticae (soybean seedling dip); conditions: 312 h, 500 ppm active ingredient (wettable powder in water), soybean seedling inoculated with 35 female adults immersed, 25° C., 13 days after the treatment, read-out: controlling value
Description: [Test Example 5] Test for Control Effect Against Tetranychus urticae
The wettable powder prepared in accordance with Formulation Example 2 was diluted with water to a concentration of 500 ppm as an active ingredient. A soybean seedling previously inoculated with 35 female adults of Tetranychus urticae was immersed in the chemical solution, and air-dried. The treated soybean seedling was placed in a room at constant temperature of 25° C. The number of surviving female adults was examined at 13 days after the treatment, and the controlling value was determined by the calculation formula of Equation 2. The number of replicate is one in each test.
The compound numbers of the compounds showing a controlling value of 90 or more in this test are listed below.

Aphis gossypii = test: Test for control effect against Aphis gossypii (cucumber seedling dip); conditions: 72 h, 500 ppm active ingredient (wettable powder in water), cucumber seedling inoculated with nymphs immersed, 25° C., 3 days after the treatment, read-out: mortality rate
Description: [Test Example 4] Test for Control Effect Against Aphis gossypii
The wettable powder prepared in accordance with Formulation Example 2 was diluted with water to a concentration of 500 ppm as an active ingredient. A cucumber seedling previously inoculated with Aphis gossypii nymphs was immersed in the chemical solution, and air-dried. The treated cucumber seedling was placed in a room at constant temperature of 25° C. The number of surviving insects was counted at 3 days after the treatment, and the mortality rate was calculated by the calculation formula of Equation 1. The number of replicate is one in each test.
as §2

SMILES | mortality at 500 ppm (Plutella xylostella) [%] | mortality at 500 ppm (Helicoverpa armigera) [%] | mortality at 500 ppm (Nilaparvata lugens) [%] | pest or weed control at 500 ppm (Tetranychus urticae) [%] | mortality at 500 ppm (Aphis gossypii) [%]
CC(COc1cc(C(=O)NCC(F)(F)F)c(Cl)cc1F)N(C(=O)OC(C)(C)C)S(=O)(=O)C(F)(F)F (stereo not shown) [Compound C-9422, tert-butyl(1-{4-chloro-2-fluoro-5-[(2,2,2-trifluoroethyl)carbamoyl]phenoxy}propan-2-yl)[(trifluoromethyl)sulfonyl]carbamate] | ≥ 90 | ≥ 90 | ≥ 90 | ≥ 90 | ≥ 90
C[C@@H](COc1cc(C(=O)NCC(F)(F)F)c(Cl)cc1F)NS(=O)(=O)C(F)(F)F [Compound C-0006, (S)-2-chloro-4-fluoro-N-(2,2,2-trifluoroethyl)-5-{2-[(trifluoromethyl)sulfonamido]propoxy}benzamide] | ≥ 90 | ≥ 90 | ≥ 90 | ≥ 90 | ≥ 90
CC(CCl)COc1cc(C(=O)NCC(F)(F)F)c(Cl)cc1F (stereo not shown) [Compound A-0037, 2-chloro-5-(3-chloro-2-methylpropoxy)-4-fluoro-N-(2,2,2-trifluoroethyl)benzamide] | – | – | – | ≥ 90 | –
C[C@@H](COc1cc(C(=O)NC2(C#N)CC2)c(Cl)cc1F)NS(=O)(=O)C(F)(F)F [Compound C-2980, (S)-2-chloro-N-(1-cyanocyclopropyl)-4-fluoro-5-{2-[(trifluoromethyl)sulfonamido]propoxy}benzamide] | ≥ 90 | – | ≥ 90 | ≥ 90 | ≥ 90
CC(COc1cc(C(=O)NCC(F)(F)F)c(Cl)cc1F)NS(=O)(=O)C(F)(F)F (stereo not shown) [Compound C-0004, 2-chloro-4-fluoro-N-(2,2,2-trifluoroethyl)-5-{2-[(trifluoromethyl)sulfonamido]propoxy}benzamide] | ≥ 90 | ≥ 90 | ≥ 90 | ≥ 90 | ≥ 90
CC(=O)N(CC(F)(F)F)C(=O)c1cc(OCC(C)NS(=O)(=O)C(F)(F)F)c(F)cc1Cl (stereo not shown) [Compound C-4214, N-acetyl-2-chloro-4-fluoro-N-(2,2,2-trifluoroethyl)-5-{2-[(trifluoromethyl)sulfonamido]propoxy}benzamide] | ≥ 90 | ≥ 90 | ≥ 90 | ≥ 90 | ≥ 90
CC(COc1cc(C(=O)NCC(F)(F)F)c(Cl)cc1F)CSC(F)(F)F (stereo not shown) [Compound B-0009, 2-chloro-4-fluoro-5-{2-methyl-3-[(trifluoromethyl)thio]propoxy}-N-(2,2,2-trifluoroethyl)benzamide] | ≥ 90 | ≥ 90 | ≥ 90 | ≥ 90 | ≥ 90
CC(=O)N(CC(F)(F)F)C(=O)c1cc(OCCCCCSC(F)(F)F)c(F)cc1Cl [Compound A-6814, N-acetyl-2-chloro-4-fluoro-N-(2,2,2-trifluoroethyl)-5-({5-[(trifluoromethyl)thio]pentyl}oxy)benzamide] | – | – | ≥ 90 | ≥ 90 | –
C[C@@H](COc1cc(C(=O)NC2CC2)c(Cl)cc1F)NS(=O)(=O)C(F)(F)F [Compound C-0130, (S)-2-chloro-N-cyclopropyl-4-fluoro-5-{2-[(trifluoromethyl)sulfonamido]propoxy}benzamide] | ≥ 90 | ≥ 90 | ≥ 90 | ≥ 90 | ≥ 90
C[C@H](COc1cc(C(=O)NCC(F)(F)F)c(Cl)cc1F)NS(=O)(=O)C(F)(F)F [Compound C-0005, (R)-2-chloro-4-fluoro-N-(2,2,2-trifluoroethyl)-5-{2-[(trifluoromethyl)sulfonamido]propoxy}benzamide] | – | – | – | ≥ 90 | –
CC(COc1cc(C(=O)NCC(F)(F)F)c(Cl)cc1F)CSC#N (stereo not shown) [Compound A-0758, 2-chloro-4-fluoro-5-(2-methyl-3-thiocyanatopropoxy)-N-(2,2,2-trifluoroethyl)benzamide] | – | – | – | ≥ 90 | –
O=C(NCC(F)(F)F)c1cc(OCCCCCBr)c(F)cc1Cl [Compound A-0030, 5-[(5-bromopentyl)oxy]-2-chloro-4-fluoro-N-(2,2,2-trifluoroethyl)benzamide] | – | – | – | ≥ 90 | –
N#CCN(CC(F)(F)F)C(=O)c1cc(OCCCCCSC(F)(F)F)c(F)cc1Cl [Compound A-6692, 2-chloro-N-(cyanomethyl)-4-fluoro-N-(2,2,2-trifluoroethyl)-5-({5-[(trifluoromethyl)thio]pentyl}oxy)benzamide] | ≥ 90 | – | – | ≥ 90 | –
O=C(NCC(F)(F)F)c1cc(OCCCCCSC(F)(F)F)c(F)cc1Cl [Compound A-4689, 2-chloro-4-fluoro-N-(2,2,2-trifluoroethyl)-5-({5-[(trifluoromethyl)thio]pentyl}oxy)benzamide] | – | – | – | ≥ 90 | –
N#CSCCCCCOc1cc(C(=O)NCC(F)(F)F)c(Cl)cc1F [Compound A-0752, 2-chloro-4-fluoro-5-[(5-thiocyanatopentyl)oxy]-N-(2,2,2-trifluoroethyl)benzamide] | – | – | ≥ 90 | – | –
Fc1cc(Cl)c(C(=S)NCC(F)(F)F)cc1OCCCCCSC(F)(F)F [Compound A-5172, 2-chloro-4-fluoro-N-(2,2,2-trifluoroethyl)-5-({5-[(trifluoromethyl)thio]pentyl}oxy)thiobenzamide] | – | – | – | ≥ 90 | –
Cc1cc(F)c(OCCCCCSC(F)(F)F)cc1C(=O)NCC(F)(F)F [Compound A-4712, 4-fluoro-2-methyl-N-(2,2,2-trifluoroethyl)-5-({5-[(trifluoromethyl)thio]pentyl}oxy)benzamide] | – | – | – | ≥ 90 | –
